Experimental data reported in ChEMBL document CHEMBL1201862, “PubChem BioAssay data set” (2004).
“And” between values parts separate entries of the source, which are not always exact repeats. Identical values can stand only once. The source made the active and inactive calls.

Tests used:
[1] = A cytotoxicity screen of small molecule inhibitors of the PhoP region in Salmonella typhi identified in the primary screen. [Related pubchem assays: 1850, 1864, 1985 ]; format: functional
[2] = molecular target: Acyl-protein thioesterase 1 (Homo sapiens, UniProt O75608); experiment: Late stage assay provider results from the probe development effort to identify selective inhibitors of LYPLA1: fluorescence-based biochemical dose-response assay.
[3] = Late-stage results from the probe development effort to identify antagonists of arginine vasopressin receptor 1a (AVPR1a): fluorescence-based cell-based dose response OXTR inhibition counterscreen assay.; format: functional
[4] = Late-stage results from the probe development effort to identify antagonists of arginine vasopressin receptor 1a (AVPR1a): fluorescence-based cell-based dose response AVPR1a inhibition assay.; format: functional
Vasopressin V2 receptor = Vasopressin V2 receptor (Homo sapiens, UniProt P30518); experiment: Late-stage results from the probe development effort to identify antagonists of arginine vasopressin receptor 1a (AVPR1a): fluorescence-based cell-based dose response AVPR2 inhibition counterscreen assay.; format: functional
Vasopressin V1b receptor = Vasopressin V1b receptor (Homo sapiens, UniProt P47901); experiment: Late-stage results from the probe development effort to identify antagonists of arginine vasopressin receptor 1a (AVPR1a): fluorescence-based cell-based dose response AVPR1b inhibition counterscreen assay.; format: functional
Nonstructural protein 1 = Nonstructural protein 1 (Influenza A virus, UniProt Q194T2); format: functional, Influenza A virus (A/California/07/2009(H1N1))
[5] = viability loss in MITF-independent A375 cells – cell-based, CellTiter-Glo luminescence, dry powder, set 6, counter-screen for MITF inhibitor project, dose response (AID 624488); format: functional
[6] = melanocyte viability loss, MITF-dependent cells, cell-based, plate reader, dry powder, cytotoxicity control, dose response (AID 651920); format: functional
INS1 = experiment: INS-1E survival protection against cytokine death – cell-based, luminescence, retest, dose response (AID 449756); format: functional; conditions: Rattus norvegicus;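 further: cell death triggered by IL-1 beta plus TNF-alpha plus IFN-gamma mixture; protective hits raise ATP signal compared with cytokine alone wells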
[7] = MITF Orthogonal Assay: SK-MEL-5 CTG Assay Measured in Cell-Based System Using Plate Reader - 2084-02_Inhibitor_Dose_DryPowder_Activity_Set5.; format: functional
[8] = cytotoxicity in MITF-independent A375 cells – cell-based, CellTiter-Glo luminescence, dry powder, set 4, counter-screen for MITF inhibitor project, dose response (AID 624364); format: functional; conditions: A-375;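 further: A375 melanoma cells are MITF independent so this is a counter screen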
[9] = viability loss in MITF-independent A375 cells – cell-based, CellTiter-Glo luminescence, dry powder, set 7, counter-screen for MITF inhibitor project, dose response (AID 624490); format: functional; conditions: A-375
[10] = MITF Measured in Cell-Based System Using Plate Reader - 2084-01_Inhibitor_Dose_DryPowder_Activity_Set6.; format: functional
[11] = viability loss in MITF-independent A375 cells – cell-based, CellTiter-Glo luminescence, dry powder, set 2, counter-screen for MITF inhibitor project, dose response (AID 624489); format: functional; conditions: A-375;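 further: actives are compounds lowering A375 viability meaning general cytotoxicity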
[12] = molecular target: T1, Calpain-2 catalytic subunit (Sus scrofa, UniProt P43367); experiment: m-calpain protease blockers, concentration series – biochemical, fluorogenic peptide substrate, dose response (AID 1420); format: functional
T1 sequence (P43367 whole entry): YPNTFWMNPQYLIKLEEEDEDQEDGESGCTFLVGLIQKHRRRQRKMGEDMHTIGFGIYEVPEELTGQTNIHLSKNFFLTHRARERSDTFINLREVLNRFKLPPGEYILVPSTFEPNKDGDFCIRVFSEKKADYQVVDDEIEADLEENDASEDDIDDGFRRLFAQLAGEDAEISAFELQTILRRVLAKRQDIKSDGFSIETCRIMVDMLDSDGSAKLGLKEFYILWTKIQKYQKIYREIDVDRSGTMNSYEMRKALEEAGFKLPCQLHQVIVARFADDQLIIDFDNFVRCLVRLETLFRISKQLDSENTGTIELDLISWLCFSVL

[13] = cytotoxicity in MITF-independent A375 cells – cell-based, CellTiter-Glo luminescence, dry powder, set 9, counter-screen for MITF modulator project, dose response (AID 651591); format: functional; conditions: A-375
[14] = cytotoxicity in melanoma parental cells – cell-based, CellTiter-Glo, dry powder, set 6, MITF inhibitor project, dose response (AID 624429); format: functional, SK-MEL-5
[15] = molecular target: T2, Heat shock factor protein 1 (Mus musculus, UniProt P38532); experiment: enhancement of HSF1-driven luciferase signal – cell-based, NIH3T3, luminescence, dose retest, confirmation (AID 435004); format: functional;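 further: stress induced by proteasome inhibitor MG132 added 30 min after compound; luciferase reporter driven by HSF1 response element in NIH3T3 cells; actives raise luminescence as potentiators of the MG132 stress response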
T2 sequence (P38532 whole entry): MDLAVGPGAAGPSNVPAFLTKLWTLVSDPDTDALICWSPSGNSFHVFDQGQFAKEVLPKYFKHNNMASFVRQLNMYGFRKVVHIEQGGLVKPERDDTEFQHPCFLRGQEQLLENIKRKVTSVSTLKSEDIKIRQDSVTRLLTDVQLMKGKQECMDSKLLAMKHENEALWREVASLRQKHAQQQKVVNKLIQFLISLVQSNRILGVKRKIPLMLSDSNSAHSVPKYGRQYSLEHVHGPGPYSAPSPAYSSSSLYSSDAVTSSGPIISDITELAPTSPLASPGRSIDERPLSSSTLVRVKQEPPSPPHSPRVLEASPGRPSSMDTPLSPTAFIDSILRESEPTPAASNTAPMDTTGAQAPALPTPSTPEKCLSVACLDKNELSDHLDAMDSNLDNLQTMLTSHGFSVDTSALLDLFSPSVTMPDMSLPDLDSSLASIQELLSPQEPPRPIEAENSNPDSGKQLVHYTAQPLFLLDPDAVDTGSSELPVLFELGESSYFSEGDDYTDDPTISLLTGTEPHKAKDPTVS

[16] = HEK293 Cytotoxicity Assay Measured in Cell-Based System Using Plate Reader - 7071-01_Inhibitor_Dose_CherryPick_Activity_Set2.; format: functional
HEK293 = experiment: viability loss in HEK293T cells – cell-based, ATP luminescence, cherry-pick samples, cytotoxicity control, dose response (AID 687005); format: functional; conditions: Homo sapiens;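 further: cells exposed to compound for 48 hours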
[17] = Dd2 malaria parasite growth inhibition potency – SYBR Green, dry powder samples, dose response (AID 1159566); format: functional, cell-based;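 further: potency for growth inhibition with lower SYBR green DNA signal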
[18] = growth inhibition of yeast DHODH-expressing 3D7 parasites – SYBR Green, dry powder samples, dose response (AID 1159570); format: functional, cell-based;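 further: parasite growth measured after 72 hours of compound exposure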
[19] = P. falciparum Dd2 growth inhibitors, dose response, SYBR Green, cherry-picked samples (AID 1159567); format: functional, cell-based
[20] = growth inhibition of PfATP4-mutant resistant parasites – NITD609-resistant line, SYBR Green, dry powder, dose response (AID 1159571); format: functional, cell-based;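 further: parasites synchronized at ring stage by sorbitol before testing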
[21] = toxicity to human HepG2 hepatoma cells – cell-based, plate reader, dry powder samples, cytotoxicity control, dose response (AID 1159569); format: functional;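 further: inhibitor potency with signal falling toward the positive control level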
[22] = viability loss in CEM21 cells – cell-based, CellTiter-Glo luminescence, cherry-picked, cytotoxicity control for viral fusion inhibitor project, dose response (AID 652042); format: functional;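 further: potency for signal decrease meaning cytotoxicity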
[23] = viability loss in CEM21 cells – cell-based, plate reader, dry powder, cytotoxicity control, dose response (AID 687026); format: functional
[24] = off-target signal loss in HeLa-CEM21 co-culture – HeLa F-luc CTL cells, cherry-picked, counter-screen for HIV-1 Env fusion inhibitor project, dose response (AID 652040); format: functional, cell-based;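 further: potency for signal decrease marking cytotoxic or nonspecific inhibition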
[25] = HIV-1 AD8 envelope cell-cell fusion blockers – cherry-pick, dose response (AID 652062); format: functional, cell-based;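 further: luciferase signal from cell-cell fusion driven by HIV-1 clade B AD8 Env; potency is for inhibitors of fusion seen as a drop in luminescence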
[26] = blockers of HIV-1 envelope-mediated cell-cell fusion – cherry-pick, dose response (AID 652057); format: functional, cell-based
[27] = inhibition of Env-driven cell fusion – HIV entry, plate reader, dry powder, dose response (AID 687023); format: functional, cell-based
[28] = molecular target: 1-phosphatidylinositol 4,5-bisphosphate phosphodiesterase beta-3 (Homo sapiens, UniProt Q01970); experiment: Fluorescence-based biochemical high throughput dose response assay to identify inhibitors of phospholipase C isozymes (PLC-B3).
[29] = molecular target: 1-phosphatidylinositol 4,5-bisphosphate phosphodiesterase gamma-1 (Homo sapiens, UniProt P19174); experiment: Counterscreen for inhibitors of phospholipase C isozymes (PLC-B3): Fluorescence-based biochemical high throughput dose response assay to identify inhibitors of phospholipase C isozymes (PLC-gamma1).
[30] = toxicity to human hepatoma HepG2 cells – cell-based, cherry-picked samples, cytotoxicity control, dose response (AID 1159577); format: functional

Chain of Acyl-protein thioesterase 1 (O75608 whole entry): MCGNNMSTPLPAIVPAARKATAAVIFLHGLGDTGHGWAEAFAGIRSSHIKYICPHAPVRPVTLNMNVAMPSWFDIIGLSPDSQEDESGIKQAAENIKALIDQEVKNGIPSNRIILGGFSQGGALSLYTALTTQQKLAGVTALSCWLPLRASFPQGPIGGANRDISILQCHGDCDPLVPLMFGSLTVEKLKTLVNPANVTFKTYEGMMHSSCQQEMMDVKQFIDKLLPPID
Chain of Vasopressin V2 receptor (P30518 whole entry): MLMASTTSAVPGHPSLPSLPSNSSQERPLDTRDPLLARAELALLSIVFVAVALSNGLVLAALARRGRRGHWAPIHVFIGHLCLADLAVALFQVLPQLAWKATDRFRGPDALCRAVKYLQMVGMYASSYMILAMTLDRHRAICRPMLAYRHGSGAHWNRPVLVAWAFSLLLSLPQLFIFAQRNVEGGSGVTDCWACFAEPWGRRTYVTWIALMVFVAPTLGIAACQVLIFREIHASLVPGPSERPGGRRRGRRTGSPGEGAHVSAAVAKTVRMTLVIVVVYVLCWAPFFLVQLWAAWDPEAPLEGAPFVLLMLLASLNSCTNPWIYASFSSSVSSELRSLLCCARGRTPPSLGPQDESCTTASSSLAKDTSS
Chain of 1-phosphatidylinositol 4,5-bisphosphate phosphodiesterase beta-3 (Q01970 whole entry): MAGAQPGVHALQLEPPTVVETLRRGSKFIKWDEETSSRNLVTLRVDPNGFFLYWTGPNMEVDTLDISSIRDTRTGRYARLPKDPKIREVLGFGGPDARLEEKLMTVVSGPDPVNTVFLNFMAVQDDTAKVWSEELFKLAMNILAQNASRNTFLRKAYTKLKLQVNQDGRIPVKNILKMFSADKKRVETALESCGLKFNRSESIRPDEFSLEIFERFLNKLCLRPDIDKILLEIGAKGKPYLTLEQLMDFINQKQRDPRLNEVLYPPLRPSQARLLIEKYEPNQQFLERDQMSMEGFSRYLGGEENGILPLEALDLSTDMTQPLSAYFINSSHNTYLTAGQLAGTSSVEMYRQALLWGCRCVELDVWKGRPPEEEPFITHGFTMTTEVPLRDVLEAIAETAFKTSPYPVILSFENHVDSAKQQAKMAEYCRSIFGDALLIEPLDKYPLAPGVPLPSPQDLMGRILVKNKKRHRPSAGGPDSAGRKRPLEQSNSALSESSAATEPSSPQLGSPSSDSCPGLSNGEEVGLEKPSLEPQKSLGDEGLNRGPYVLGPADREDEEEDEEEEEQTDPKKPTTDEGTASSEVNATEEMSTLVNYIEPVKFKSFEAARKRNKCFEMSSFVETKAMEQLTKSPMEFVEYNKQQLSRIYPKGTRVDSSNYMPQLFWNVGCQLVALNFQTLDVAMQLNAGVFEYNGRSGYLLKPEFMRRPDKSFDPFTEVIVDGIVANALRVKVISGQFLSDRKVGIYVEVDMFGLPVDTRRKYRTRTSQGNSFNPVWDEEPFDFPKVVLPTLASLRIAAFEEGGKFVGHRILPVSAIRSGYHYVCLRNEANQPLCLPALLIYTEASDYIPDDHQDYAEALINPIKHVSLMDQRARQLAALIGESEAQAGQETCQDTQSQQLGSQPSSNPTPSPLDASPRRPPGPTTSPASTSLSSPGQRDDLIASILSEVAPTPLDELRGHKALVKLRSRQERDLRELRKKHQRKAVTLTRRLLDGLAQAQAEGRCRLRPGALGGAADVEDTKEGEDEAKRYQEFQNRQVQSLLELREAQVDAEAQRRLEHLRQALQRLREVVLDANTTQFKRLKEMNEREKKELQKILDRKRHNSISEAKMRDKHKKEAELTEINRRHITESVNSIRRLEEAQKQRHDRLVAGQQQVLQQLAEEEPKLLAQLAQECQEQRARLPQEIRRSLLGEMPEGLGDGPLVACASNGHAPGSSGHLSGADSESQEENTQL
Chain of 1-phosphatidylinositol 4,5-bisphosphate phosphodiesterase gamma-1 (P19174 whole entry): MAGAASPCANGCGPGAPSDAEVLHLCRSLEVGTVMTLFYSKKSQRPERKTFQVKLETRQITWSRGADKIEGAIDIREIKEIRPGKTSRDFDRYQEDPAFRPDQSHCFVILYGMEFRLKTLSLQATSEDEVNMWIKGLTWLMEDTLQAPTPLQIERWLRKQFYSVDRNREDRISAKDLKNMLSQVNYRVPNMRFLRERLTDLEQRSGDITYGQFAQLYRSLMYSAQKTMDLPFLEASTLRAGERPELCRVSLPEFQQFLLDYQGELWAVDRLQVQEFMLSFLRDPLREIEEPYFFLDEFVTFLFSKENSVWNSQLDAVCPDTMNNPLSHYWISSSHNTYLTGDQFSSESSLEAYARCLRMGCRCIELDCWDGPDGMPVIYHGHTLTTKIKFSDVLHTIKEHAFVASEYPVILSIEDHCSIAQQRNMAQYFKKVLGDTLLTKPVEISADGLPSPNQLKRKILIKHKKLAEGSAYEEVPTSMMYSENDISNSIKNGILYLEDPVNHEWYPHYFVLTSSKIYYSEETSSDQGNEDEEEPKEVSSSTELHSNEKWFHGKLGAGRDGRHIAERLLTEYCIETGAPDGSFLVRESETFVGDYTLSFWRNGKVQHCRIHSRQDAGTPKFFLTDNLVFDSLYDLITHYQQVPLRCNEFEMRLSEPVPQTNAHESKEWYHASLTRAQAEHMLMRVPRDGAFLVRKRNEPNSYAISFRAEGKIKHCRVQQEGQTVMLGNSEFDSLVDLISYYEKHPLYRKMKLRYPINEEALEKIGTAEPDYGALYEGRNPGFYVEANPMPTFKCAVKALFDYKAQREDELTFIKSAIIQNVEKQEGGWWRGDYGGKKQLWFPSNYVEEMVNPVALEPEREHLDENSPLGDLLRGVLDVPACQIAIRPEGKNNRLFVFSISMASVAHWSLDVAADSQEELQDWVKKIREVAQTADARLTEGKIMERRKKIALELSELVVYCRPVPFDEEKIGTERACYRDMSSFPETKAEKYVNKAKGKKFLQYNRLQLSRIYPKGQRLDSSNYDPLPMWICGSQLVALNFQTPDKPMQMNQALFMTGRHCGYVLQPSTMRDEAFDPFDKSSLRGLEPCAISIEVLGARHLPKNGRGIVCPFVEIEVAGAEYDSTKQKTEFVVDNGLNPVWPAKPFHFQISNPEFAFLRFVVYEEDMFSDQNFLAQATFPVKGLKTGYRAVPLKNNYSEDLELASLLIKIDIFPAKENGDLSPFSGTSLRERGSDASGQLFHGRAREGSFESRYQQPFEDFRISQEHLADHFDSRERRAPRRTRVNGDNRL
Chain of Vasopressin V1b receptor (P47901 whole entry): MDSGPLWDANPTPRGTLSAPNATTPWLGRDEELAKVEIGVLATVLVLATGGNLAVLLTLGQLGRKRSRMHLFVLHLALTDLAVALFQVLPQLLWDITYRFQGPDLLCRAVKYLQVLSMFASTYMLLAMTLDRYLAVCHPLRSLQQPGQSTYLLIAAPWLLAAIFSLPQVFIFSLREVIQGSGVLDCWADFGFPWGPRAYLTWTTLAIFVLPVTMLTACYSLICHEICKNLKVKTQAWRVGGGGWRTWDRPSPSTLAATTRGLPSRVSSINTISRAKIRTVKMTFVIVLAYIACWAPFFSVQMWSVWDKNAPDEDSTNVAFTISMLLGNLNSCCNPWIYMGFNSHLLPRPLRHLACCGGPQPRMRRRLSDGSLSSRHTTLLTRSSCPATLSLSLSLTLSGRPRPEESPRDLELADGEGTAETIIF
Chain of Nonstructural protein 1 (Q194T2 whole entry): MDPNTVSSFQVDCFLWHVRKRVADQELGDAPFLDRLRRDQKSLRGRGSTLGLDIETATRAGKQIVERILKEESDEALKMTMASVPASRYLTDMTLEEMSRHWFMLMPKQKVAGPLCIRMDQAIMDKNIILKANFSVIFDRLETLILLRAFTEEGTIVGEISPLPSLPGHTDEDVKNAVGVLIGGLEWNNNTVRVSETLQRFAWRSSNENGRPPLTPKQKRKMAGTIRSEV

Compound: COc1ccc(N2CCN(C(=O)c3cc4c(s3)-c3ccccc3S(=O)(=O)C4)CC2)cc1
- EC50 [1]: > 50 µM (active)
- IC50 [2]: > 10 µM (inactive)

Compound: COc1ccc(N(CC2CC2)C(=O)N2CCN(c3ccccc3C(F)(F)F)CC2)cc1
- IC50 [3]: 0.12 µM (active)
- IC50 [4]: 0.0588 µM (active)
- IC50 (Vasopressin V2 receptor): 8.41 µM (active)
- IC50 (Vasopressin V1b receptor): 17.9 µM (inactive)

Compound: O=C1C=C(Nc2ccccc2)C(=O)c2ccccc21
- IC50 (Nonstructural protein 1): 81.7 µM (active)
- AC50 [5]: > 70 µM (inactive)
- AC50 ([5]; A-375): 51.5 µM (active)
- AC50 [6]: > 70 µM (inactive)
- AC50 (INS1): 3.97 µM (active)
- AC50 ([7]; SK-MEL-5): 1.53 µM (active)
- AC50 ([7]; sk-mel-5): 1.18 µM (active)
- AC50 [8]: > 70 µM (inactive)
- AC50 [9]: > 70 µM (inactive)
- AC50 [10]: 7.24 µM (active) and 5.31 µM (active)
- AC50 [11]: > 70 µM (inactive)
- IC50 [12]: 6.16 µM (not active)
- AC50 [13]: > 70 µM (inactive)
- AC50 ([14]; SK-MEL-5): 2.37 µM (active)
- AC50 ([14]; sk-mel-5): 1.93 µM (active)
- EC50 [15]: 1.26 µM (active)

Compound: C[C@H]1CN([C@@H](C)CO)S(=O)(=O)c2ccc(Br)cc2O[C@@H]1CN(C)S(=O)(=O)c1ccccc1F
- AC50 [16]: 15.7 µM (active)
- AC50 (HEK293): 15.7 µM (active)

Compound: Cc1ccc(S(=O)(=O)N(C)C[C@H]2OCc3ccccc3-c3c(n(C)c4ccccc34)C(=O)N([C@@H](C)CO)C[C@H]2C)cc1
- AC50 [17]: 2.01 µM (active)
- AC50 [18]: 3.19 µM (active)
- AC50 [19]: 2.23 µM (active)
- AC50 [20]: 2.63 µM (active)
- AC50 [21]: 9.17 µM (active)

Compound: CC(=O)Nc1ccc(NC(=O)CN(c2ccc(C34CC5CC(CC(C5)C3)C4)cc2)S(C)(=O)=O)cc1
- AC50 [22]: 57.7 µM (active)
- AC50 [23]: 50.4 µM (active)
- AC50 [24]: > 70 µM (inactive)
- AC50 [25]: 5.78 µM (active)
- AC50 [26]: 2.87 µM (active)
- AC50 [27]: 7.68 µM (active) and 9 µM (active)

Compound: COc1cccc(C(=O)Nc2ccc(-n3nncc3C(C)(C)C)cc2)c1
- IC50 [28]: > 122 µM (inactive)
- IC50 [29]: > 122 µM (inactive)

Compound: N#Cc1ccc(-c2ccc([C@H]3[C@@H]4CN(C(=O)C5CCCC5)C[C@H]3N4)cc2)cc1
- AC50 [19]: 7.4 µM (active)
- AC50 [30]: > 39 µM (inactive)
